Source: patent US7101872B2, “Farnesyl dibenzodiazepinone, and processes for its production” (Ecopia BioSciences, Inc., priority 2003, dated 2006)
In brackets after ≈: the same amount, converted by molar mass.

Key:
Type in all cases: cell-based
[1] = test system: Bacillus subtilis ATCC 23857; assay: MIC broth microdilution; details: ATCC23857, 35° C., 24 hrs
Procedure: (§1) The MIC determination of ECO-04601 against bacteria strains (Bacillus subtilis—ATCC 23857; Micrococcus luteus—ATCC 9341) was performed using broth microdilution assay (Methods for Dilution Antimicrobial Susceptibility Tests for Bacteria That Grow Aerobically; Approved Standard-Fifth Edition. NCCLS document M7-A5 (ISBN 1-56238-394-9). NCCLS, 940 West Valley Road, Suite 1400, Wayne, Pa. 19087-1898 USA.). Test compound preparation: […] The first dilution (3.2 mg/ml) was prepared by resuspending 0.5 mg of each test article in 156.25 μl of DMSO. […] Assay plates were incubated at 35° C. for 24 hrs.

[2] = test system: Micrococcus luteus ATCC 9341; assay: MIC broth microdilution; details: ATCC9341, 35° C., 24 hrs
Procedure: as §1

9L = assay: Antiproliferative study, glioma cell lines (MTT); details: Rattus norvegicus, Gliosarcoma, 96 hrs
Procedure: Cells were passaged once a week. Prior to use the cells were detached from the culture flask by treating with trypsin for five to ten minutes. The cells were counted with a Neubauer glass slide and viability assessed by 0.25% trypan blue exclusion. Only flasks with >95% cell viability, were used in the study. Cell lines amplification and plating: Cells, 5×10^3 cells per well in 100 μL drug-free medium supplemented with 10% serum, were plated in 96-well flat bottom microtiter plates and incubated at 37° C. for 48 hrs before treatment. Evaluation of inhibitory activity on cell proliferation: Cells (in triplicate wells) were incubated 96 hrs with medium containing different concentrations of ECO-04601, starting at 5.0 μg/ml (10 μM). The compound was used in a solution of 1% DMSO in D-MEM or RPMI media (or other equivalent media). The concentrations of ECO-04601 were as follows: 10 μM (5.0 μg/ml), 1 μM (0.50 μg/ml), 0.5 μM (0.25 μg/ml), 0.1 μM (0.050 μg/ml), […] (0.025 μg/ml), 0.01 μM (0.0050 μg/ml), 0.001 μM (0.00050 μg/ml). Negative controls were cells treated with vehicle alone (1% DMSO in culture medium). Positive controls were cells treated with 4 to 6 increasing concentrations of cisplatin (CDDP) (data not shown). The optical density was measured before incubation (time 0) and following 96 hrs of incubation with test compound in order to measure the growth rate of each cell line.
At the end of the cell treatment, cell culture media was replaced with 150 μl of fresh medium containing 10 mM of 4-(2-hydroxyethyl)-1-piperazineethanesulfonic acid buffer, pH 7.4. Then 50 μl of 2.5 mg/ml of 3-(4,5-dimethylthiazo-2-yl)-2,5-diphenyltetrazolium bromide in PBS pH 7.4, were added to each well and the culture plates incubated for 4 hrs at 37° C. The resulting supernatant was removed and formazan crystals were dissolved with 200 μl of DMSO followed by 25 μl of glycine buffer (0.1 M glycine plus 0.1 M NaCl, pH 10.5). The optical density was read in each well using a single wavelength spectrophotometer plate reader at 570 nm. […] Each of the cell lines was tested in at least 3 independent experiments.

human 5-LO = target: T1, human 5-LO (Homo sapiens, UniProt P09917); assay: Human 5-lipoxygenase activity in stimulated PMNs (Leukotriene B4 EIA)
T1 construct: Human peripheral blood mononuclear cells (PMNs) were isolated through a Ficoll-Paque density gradient; endogenous in cells; host or cells: human peripheral blood cells (PMNs) isolated by Ficoll-Paque, stimulated with A23187
T1 sequence (P09917 whole entry): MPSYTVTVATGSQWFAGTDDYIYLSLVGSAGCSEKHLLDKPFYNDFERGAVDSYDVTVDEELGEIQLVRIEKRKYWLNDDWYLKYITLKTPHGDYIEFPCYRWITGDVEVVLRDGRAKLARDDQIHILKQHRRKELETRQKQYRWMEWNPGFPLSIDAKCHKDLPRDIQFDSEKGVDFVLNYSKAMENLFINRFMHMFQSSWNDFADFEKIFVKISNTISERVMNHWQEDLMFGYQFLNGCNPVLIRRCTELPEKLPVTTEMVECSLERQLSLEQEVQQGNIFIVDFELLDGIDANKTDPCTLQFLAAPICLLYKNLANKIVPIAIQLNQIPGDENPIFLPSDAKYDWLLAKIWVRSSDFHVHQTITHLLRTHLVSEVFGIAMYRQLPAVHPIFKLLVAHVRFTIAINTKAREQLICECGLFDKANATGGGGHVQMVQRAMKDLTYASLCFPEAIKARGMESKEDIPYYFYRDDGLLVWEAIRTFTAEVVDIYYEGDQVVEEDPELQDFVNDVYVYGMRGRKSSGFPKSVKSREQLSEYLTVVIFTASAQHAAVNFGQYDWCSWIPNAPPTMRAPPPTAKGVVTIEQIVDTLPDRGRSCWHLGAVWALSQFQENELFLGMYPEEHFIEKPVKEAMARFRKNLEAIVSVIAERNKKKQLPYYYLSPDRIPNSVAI

B16 (F10) = assay: MTT cell proliferation, tumor cell lines; details: Mus musculus, Melanoma, 96 hrs
Procedure: (§2) Culture conditions: The cell lines listed in Table 4 were used to characterize the cytotoxicity of ECO-04601 against human and animal tumor cell lines. […] Cells were passaged twice to three times per week. Viability was examined by staining with 0.25% trypan blue and only flasks where cell viability was >95% were used for this study. Cell lines amplification and plating: Tumor cells were seeded (1–3×10^3 cells per 100 μL) in 96-wells flat bottom microtiter plates and incubated at 37° C. and 5% CO2 for 16 hrs before treatment in drug-free medium supplemented with 10% serum. Evaluation of inhibitory activity on cell proliferation: Cells were incubated for 96 hrs with 6 log10-fold concentrations of the test substance starting at 10 μg/ml (20 μM). The test substance stock solution (5 mg/mL) was initially diluted at […] in medium supplemented with serum. Other concentrations were then obtained from 1/10 fold successive dilutions in the same supplemented medium. Cell survival was evaluated 96 h later by replacing the culture media with 150 μL fresh medium containing 10 mM 4-(2-hydroxyethyl)-1-piperazineethanesulfonic acid buffer, pH 7.4. Next, 50 μL of 2.5 mg/mL of 3-(4,5-dimethylthiazo-2-yl)-2,5-diphenyltetrazolium bromide (MTT) in phosphate buffer solution, pH 7.4, was added. After 3–4 h of incubation at 37° C., the medium and soluble MTT was removed, and 200 μL of dimethylsulfoxide was added to dissolve the precipitate of reduced MTT followed by addition of 25 μL glycine buffer (0.1 M glycine plus 0.1 M NaCl, pH 10.5). The absorbance was determined at 570 nm with a microplate reader.

K562 = assay: MTT cell proliferation, tumor cell lines; details: Homo sapiens, K562, Leukemia myelogeneous, 96 hrs
Procedure: as §2

SK-MEL-1 = assay: MTT cell proliferation, tumor cell lines; details: Homo sapiens, SK-MEL-1, Melanoma, 96 hrs
Procedure: as §2

SK-MEL 28^VEGF = assay: MTT cell proliferation, tumor cell lines; details: Homo sapiens, Melanoma (expressing VEGF), 96 hrs
Procedure: as §2

Panc 10.05 = assay: MTT cell proliferation, tumor cell lines; details: Homo sapiens, Panc1005, Panc 10.05, Pancreatic carcinoma, 96 hrs
Procedure: as §2

P388 = assay: MTT cell proliferation, tumor cell lines; details: Mus musculus, P388, Leukemia, 96 hrs
Procedure: as §2

SK-MEL 28 = assay: MTT cell proliferation, tumor cell lines; details: Homo sapiens, SK-MEL 28, Melanoma, 96 hrs
Procedure: as §2

Panc 96 = assay: MTT cell proliferation, tumor cell lines; details: Homo sapiens, Panc 96, Pancreatic carcinoma, 96 hrs
Procedure: as §2

MCF-7 = assay: MTT cell proliferation, tumor cell lines; details: Homo sapiens, MCF7, MCF-7, Breast adenocarcinoma, 96 hrs
Procedure: as §2

I83 = assay: MTT cell proliferation, tumor cell lines; details: Homo sapiens, I83, Leukemia, 96 hrs
Procedure: as §2

MIC [1]: 12.5 µg/mL (≈ 27 µM) | MIC [2]: 6.25 µg/mL (≈ 13.5 µM) | IC50 (9L): 6.82 ± 2.9 µM | IC50 (human 5-LO; A23187-stimulated human PMNs, 15 minutes at 37° C., Leukotriene B4 EIA, read-out: apparent IC50, activity of human 5-LO): 0.93 µM | EC50 (human 5-LO; FIG. 8 legend): 0.93 µM | IC50 (B16 (F10)): 11.4 µM | IC50 (K562): 8.6 µM | IC50 (SK-MEL-1): 14.1 µM | IC50 (SK-MEL 28^VEGF): 14.3 µM | IC50 (Panc 10.05): 14.2 µM | IC50 (P388): 10.9 µM | IC50 (SK-MEL 28): 14 µM | IC50 (Panc 96): 12.5 µM | IC50 (MCF-7): 9.7 µM | IC50 (I83): 2.7 µM
Structure (SMILES): CC(C)=CCC/C(C)=C/CC/C(C)=C/CN1C(=O)c2cccc(O)c2Nc2c(O)cc(O)cc21 [ECO-04601, 10-farnesyl-4,6,8-trihydroxy-dibenzodiazepin-11-one]
